The subject of series [1] is H460 lung carcinoma spheroids. The experiment in a line: Spheroid model, clonogenic survival. The settings on record: read-out: IC90 H460 Spheroid 10% O2.
Series [2] concerns NCI-H460 cells. In words: Clonogenic assay - oxygen dependence. The settings on record: Homo sapiens.
For series [3], the system named is NCI-H460 cells. The experiment in a line: Antiproliferation assay - oxygen dependence. The format is cell-based, human. An excerpt: . […] The calculated IC50 values (μM) are tabulated in Table Y1 (H460 cells) or Table Y2 (HT29 cells) below.
The subject of series [4] is H460 cells exposed as monolayers. The experiment in a line: Clonogenic survival of monolayer cells (Example 35). The settings on record: Homo sapiens, NCI-H460, 2 h.
For series [5], the system named is NCI-H460 cells. The experiment in a line: Antiproliferation assay (Alamar Blue), anoxia vs air. For orientation: Alamar Blue is a resazurin reagent that responds to reducing activity.
Series [6] is classed as physicochemical. The settings on record: glassy carbon, Ag/AgCl reference; for Reduction Potentials, 100 mV/sec: scan rate 100 mV/sec; for Reduction Potentials, 10,000 mV/sec: scan rate 10,000 mV/sec.
The mark [7] stands for this setting: Homo sapiens, NCI-H460, read-out: IC50 in H460 cells, 0.6% O2.
Setting [8] is: Homo sapiens, NCI-H460, read-out: IC50 in H460 cells, Air.
Where [9] appears, read: Homo sapiens, NCI-H460, read-out: IC50 in H460 cells, N2.
Where [10] appears, read: read-out: IC90 H460 Monolayer N2.
Where [11] appears, read: Homo sapiens, NCI-H460, 2 h, read-out: IC50 H460 Air, air, 2 h exposure.
[12] abbreviates: Homo sapiens, NCI-H460, 2 h, read-out: IC50 H460 Anoxia, anoxia, 2 h exposure.

Read-outs that look alike come from different tables or passages of the source.

As a reminder, the IC90 is the point of the concentration-response curve where the effect stands at 90%. By IC50 is commonly meant the concentration that gives 50% inhibition. Take `COC(=O)c1cc(C(C)OP(=O)(NCCBr)NCCBr)ccc1OCc1cnc([N+](=O)[O-])n1C` (centres unmarked) [Compound 70]: the IC90 in series [1] (Homo sapiens, NCI-H460, 2 h) was found to be 25500 nM; in series [2] (NCI-H460, read-out: IC90 H460 0.6% O2), 8000 nM; in series [2] (NCI-H460, read-out: IC90 H460 Air), 20000 nM; in series [2] (NCI-H460, read-out: IC90 H460 N2), 2000 nM; in series [4] (setting [10]) it was 1250 nM. The IC50 came out at 30000 nM in series [3] (setting [7]); 65000 nM in series [3] (setting [8]); 2000 nM in series [3] (setting [9]); 65000 nM in series [5] (setting [11]); 2000 nM in series [5] (setting [12]).
`CC(OP(=O)(NCCBr)NCCBr)c1ccc([N+](=O)[O-])s1` (centres unmarked) [Compound 88]: the “Reduction Potentials, 100 mV/sec” value in series [6] is on record as −559 mV. Besides, the “Reduction Potentials, 10,000 mV/sec” value in series [6] is reported as −629 mV. Besides, the IC50 in series [3] (Homo sapiens, NCI-H460, read-out: IC50 in H460 cells, 0.3% O2) was 500 nM; in series [3] (setting [7]), 200 nM; in series [3] (setting [8]), 500 nM; in series [3] (setting [9]), 30 nM; in series [5] (setting [11]), 530 nM; in series [5] (setting [12]), 30 nM.
`N#Cc1cc(COP(=O)(NCCBr)NCCBr)sc1[N+](=O)[O-]` [Compound 97]: the IC90 in series [1] (2 h exposure, 10% O2) worked out at 13000 nM. The IC50 in series [3] (Air, read-out: IC50 in H460 cells, Air) was determined as 20 nM; in series [3] (N2, read-out: IC50 in H460 cells, N2), 6 nM; in series [3] (read-out: IC50 in H460 cells, 0.6% O2), 10 nM; in series [5] (read-out: IC50 H460 Air, air, 2 h exposure), 100 nM; in series [5] (read-out: IC50 H460 Anoxia, anoxia, 2 h exposure), 10 nM.
As to `Cn1c(COP2(=O)N(CCBr)CCN2CCBr)cnc1[N+](=O)[O-]` [Compound 108], in series [6], the “Reduction Potentials, 100 mV/sec” value is recorded as −614 mV. The “Reduction Potentials, 10,000 mV/sec” value in series [6] is −593 mV. Besides, the IC50 in series [3] (setting [7]) is above 100000 nM; in series [3] (setting [8]), above 100000 nM; in series [3] (setting [9]) it was 1000 nM; in series [5] (setting [11]), above 100000 nM; in series [5] (setting [12]) it was 1100 nM.
With `Nc1n[n+]([O-])c2ccccc2[n+]1[O-]` [Tirapazamine, reference compound], the IC90 was above 200000 nM in series [1] (Homo sapiens, NCI-H460, 2 h); 27000 nM in series [4] (read-out: IC90 H460 Monolayer 0.6% O2); above 100000 nM in series [4] (read-out: IC90 H460 Monolayer Air); 14000 nM in series [4] (setting [10]).

These data come from patent US8507464B2, “Phosphoramidate alkylator prodrugs” (Threshold Pharmaceuticals, Inc., priority 2005, dated 2013).
